Laboratory results reported in PubChem BioAssay AID1671244.

Target: Casein kinase I isoform delta (Homo sapiens) (UniProt P48730)
Experiment: CSNK1D kinase inhibitors, dose response, biochemical, Z'-LYTE, FRET, direct format (AID 1671244)
Conditions: Z'-LYTE FRET kinase activity, recombinant CK1 delta

Chain of Casein kinase I isoform delta (Homo sapiens) (P48730 whole entry, looked up, canonical isoform): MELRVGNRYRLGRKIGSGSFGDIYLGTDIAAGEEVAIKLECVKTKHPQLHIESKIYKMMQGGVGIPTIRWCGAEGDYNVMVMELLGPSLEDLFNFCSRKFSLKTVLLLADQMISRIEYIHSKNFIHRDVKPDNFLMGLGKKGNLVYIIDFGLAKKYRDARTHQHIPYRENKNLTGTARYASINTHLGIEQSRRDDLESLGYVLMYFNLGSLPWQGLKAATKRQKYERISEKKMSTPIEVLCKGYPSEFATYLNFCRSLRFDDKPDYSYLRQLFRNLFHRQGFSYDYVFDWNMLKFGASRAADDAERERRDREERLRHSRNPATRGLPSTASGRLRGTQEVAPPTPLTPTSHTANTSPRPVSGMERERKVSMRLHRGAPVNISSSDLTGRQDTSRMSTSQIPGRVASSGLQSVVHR

## Brc1c(Br)c(Br)c2n[nH]nc2c1Br
  IC50: 3.68 µM
